# Assay results published in patent US12527874B2, “Bioorthogonal compositions” (TAMBO, INC., priority 2015, dated 2026).
# Assays:
# [1] = 3 days after the last treatment, after injection of HMT
# Method: Samples were collected 3 days after the last treatment. Data are means±SD (n=2).
# Reticulocyte measurements. Two mice per condition were anesthetized with isoflurane anesthesia 3 days after the last treatment during the nadir of reticulocyte decrease. (27) Blood was collected by cardiac puncture in a syringe containing lithium heparin to prevent coagulation. RBC and reticulocyte concentrations were determined the same day using a DEXX ProCyte Dx Hematology Analyzer (IDEXX Laboratories, Inc.).
# [2] = xenograft mice, HMT injected
# [3] = tested on: human soft tissue sarcoma (HT-1080) xenografts; test: Inhibition of HT1080 xenograft growth (soft tissue sarcoma model, HMT injected near tumor); type: in vivo, mice
# Method: HMT was injected near the palpable soft tissue sarcoma tumors after 18 days when their size reached an average of 195 mm3 (range, 90-500 mm3). The mice were separated into two cohorts: (i) 3 intravenous doses of 14 μmoles/kg of doxorubicin every 4 days (maximum tolerable dose), (27, 49) or (ii) daily doses of 14 μmoles/kg of doxorubicin for 10 days (FIG. 18B). Tumor volumes were measured twice a week for 13 weeks (FIG. 18A). No further therapies were given to the subjects 28 days post tumoral implantation (dpi).
# HT1080 cells = test: MTT cytotoxicity assay; settings: read-out: 50% growth inhibitory concentration (IC50), 48 h treatment followed by additional 48 h in DMEM
# Method: Cells were treated with the drug or the pro-drug for 48 h, followed by additional 48 h in DMEM, prior to measuring their viability.
# HT1080 cells were purchased from ATCC (cat. #CCL-121), and propagated in Dulbecco's modified Eagle's medium (DMEM; Meditech, Inc. Corning, Manassas, VA) containing 5% fetal bovine serum (FBS; HyClone, Logan Utah), supplemented with 100 U/ml penicillin, and 100 μg/ml streptomycin (Life Tech Corp., Grand Island, NY) at 37° C. in a 5% CO2 incubator.
# Day one: using 96-well format, plated˜100 cells/well in 100 μL DMEM and incubated for 24 h. […] Day four: the medium was replaced with 100 μL of fresh DMEM and the cells were incubated for 48 h. Day six: DMEM was removed and the cells were incubated with 100 μL of MTT solution (0.6 mg/mL in DMEM) per well for 4 h at 37° C. The MTT solution was then replaced with 100 μL of DMSO containing 4% aqueous ammonia per well to dissolve the purple formazan crystals. After 30 min, the absorbance of each well at 550 nm was recorded using BioTek Synergy HT multi detection microplate reader. Results were averaged from three independent arrays of triplicate experiments.
structure (smiles),measurement,setting,value
COc1cccc2c1C(=O)c1c(O)c3c(c(O)c1C2=O)C[C@@](O)(C(=O)CO)C[C@@H]3O[C@H]1C[C@H](N)[C@H](O)[C@H](C)O1 [doxorubicin],reticulocyte counts,[1],dramatic decrease in reticulocytes
same,body weight lost,[2],about 20%
same,median tumor size,"[3]; 2 weeks after the last treatment dose (40 dpi), HMT near tumor",undetectable
same,mice with a mild response,"[3]; 40 dpi, HMT near tumor",1/5
same,median tumor size,"[3]; 30 days after the last treatment dose (60 dpi), HMT near tumor",greater than 2000 mm^3
same,mice that reached the study endpoint of 2000 mm3,[3]; by 88 dpi,5/5
same,IC50,HT1080 cells,18 nM
